Experimental findings from patent US20110305632A1, “PROCESS FOR THE PREPARATION OF ASYMMETRICAL BIS(THIOSEMICARBAZONES)” (THE UNIVERSITY OF MELBOURNE, priority 2008, published 2011) are described below.

The data set is described as follows: Cyclic voltammetry of Cu(II) bis(thiosemicarbazonato) complexes (half-wave potentials and peak separations). It is filed as physicochemical. As to conditions: DMF. The procedure:
Voltametric experiments were performed with an Autolab (Eco Chemie, Utrecht, Netherlands) computer-controlled electrochemical workstation.
Recent studies have shown that in vivo stability of bifunctional chelators of copper is not only dependent on the thermodynamic stability and kinetic inertness of the complex but also the susceptibility to reduction of Cu(II) to Cu(I). Intracellular reductants with thiols, such as cysteine-rich metallothioneins, may act as effective reductants of Cu(II) and scavengers of the labile Cu(I) ions.

[1] abbreviates: cyclic voltammogram, scan rate 0.1 V s^−1, glassy carbon electrode.
Setting [2] is: cyclic voltammogram, scan rate 0.1 V s^−1, potentials relative to SCE, glassy carbon electrode.

In the case of `CN=C([S-])N/N=C(C)/C(C)=N/NC([S-])=NC.[Cu+2]` [Cu^II(atsm)], the “reversibility of the Cu(II)/Cu(I) reduction” value (cyclic voltammetry, glassy carbon electrode) is on record as “quasi-reversible”. Under setting [1], the “Cu^II/Cu^I Epa − Epc (anodic to cathodic peak separation)” value was 102 mV and the “Cu^III/Cu^II Epa − Epc (anodic to cathodic peak separation)” value came out at 94 mV. Under setting [2], this molecule displayed a Cu^II/Cu^I E1/2 of -0.63 V and a Cu^III/Cu^II E1/2 of 0.75 V. Besides, the “E1/2 of Cu(II)/Cu(I) reduction” value (vs. SCE (Fc/Fc+ 0.54 V), glassy carbon working electrode) was −0.63 V.
